Data set [1] can be described thus: Lipophilicity, log D of the compound at pH 7.4. The data set is classed as physicochemical. The following applies: buffer.
A further data set concerns the target Translocator protein (Rattus norvegicus, UniProt P16257). The data set can be described thus: Displacement of [3H]PK11195 from TSPO in Wistar rat heart incubated for 15 mins.
The subject of data set [2] is Rattus norvegicus. Kind of data set: Biodistribution in naive Wistar rat whole brain at 1 to 3 MBq, iv using [18F] labeled compound measured 2 mins post dose. The data set is classed as ADME, organism-based. The following applies: in vivo.
For data set [3], the system named is Rattus norvegicus. The data set can be described thus: Biodistribution in naive Wistar rat olfactory bulbs at 1 to 3 MBq, iv using [18F] labeled compound measured 30 mins post dose. The data set is classed as ADME, organism-based, Olfactory bulb. The following applies: in vivo, 0.5 h.
Data set [4] relates to Striatum. Kind of data set: Ratio of biodistribution in olfactory bulbs to striatum of in naive Wistar rat at 1 to 3 MBq, iv using [18F] labeled compound measured 30 mins post dose. Type of data set: ADME, organism-based. The settings on record: in vivo, 0.5 h.
The subject of data set [5] is Striatum. The data set can be described thus: Ratio of biodistribution in striatum at 2 mins post dose to biodistribution in striatum post 30 mins in naive Wistar rat at 1 to 3 MBq, iv using [18F] labeled compound. The following applies: in vivo. Type of data set: ADME, organism-based.
The next data set deals with Brain. The data set can be described thus: Stability in naive Wistar rat brain assessed as parent compound level at 1 to 3 MBq, iv using [18F] labeled compound measured 60 mins post dose. Type of data set: ADME, organism-based. The settings on record: in vivo, 1 h.
The nature of data set [6]: Lipophilicity, log P of the compound by HPLC method. Type of data set: physicochemical.

Sequence of Translocator protein (P16257 whole entry, looked up): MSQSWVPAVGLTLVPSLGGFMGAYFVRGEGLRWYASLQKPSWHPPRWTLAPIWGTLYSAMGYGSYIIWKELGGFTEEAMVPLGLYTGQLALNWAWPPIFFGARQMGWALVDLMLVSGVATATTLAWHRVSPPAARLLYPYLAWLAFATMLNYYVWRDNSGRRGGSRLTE

For `COc1ccc(OCCF)c(CN(C(C)=O)c2cccnc2Oc2ccccc2)c1`, the logD (commonly lipophilicity at a set pH, counting ionised and neutral species) in data set [1] (read-out: logD) amounted to 1.58. Also, the affinity on Translocator protein, expressed as Ki, was 7.28 nM. The Drug uptake with Rattus norvegicus [2] worked out at 0.25 % ID/g; in the data set with Rattus norvegicus [3] it was 0.26 % ID/g. The figures for the Ratio in the data set with Striatum [4] and with Striatum [5] were 5.2 and 4.4, respectively.

On to `CC(=O)N(Cc1cccnc1OCCF)c1ccccc1Oc1ccccc1`, for which, in data set [1] (read-out: logD), the pH-dependent lipophilicity (logD) turned out to be 2.6.

Turning to `O=C(CF)N(Cc1cccc2c1OCC2)c1ccccc1Oc1ccccc1`, the pH-dependent lipophilicity (logD) in data set [1] (read-out: logD) was determined as 2.68. The affinity on Translocator protein corresponds to a Ki of 0.31 nM. Also, the Drug uptake with Rattus norvegicus [2] was 0.81 % ID/g; with Rattus norvegicus [3], 0.68 % ID/g. In addition, the Ratio with Striatum [4] and in the data set with Striatum [5] was 2.52 throughout. The Stability in the data set on Brain was found to be 91%.

In the case of `COc1ccccc1CN(C(=O)CF)c1ccccc1OC1CCCC1`, the logD in data set [1] (read-out: logD) is 2.35. Moreover, the affinity at Translocator protein corresponds to a Ki of 6.65 nM. Moreover, the Drug uptake amounted to 0.77 % ID/g in the data set on Rattus norvegicus [2] and 0.42 % ID/g in the data set on Rattus norvegicus [3]. Besides, the figures for the Ratio in the data set on Striatum [4] and in the data set on Striatum [5] were 3.23 and 5.46, respectively. The Stability in the data set with Brain was found to be 62%.

Turning to `COc1ccc(OC)c(CN(C(=O)CF)c2ccccc2S(=O)(=O)c2ccccc2)c1`, at Translocator protein, the Ki (in general, a measure of affinity in units of concentration, obtained from inhibition or displacement) was 3430 nM.

As for `COc1ccc(OC)c(CN(C(=O)CF)c2ccccc2OC2CCCC2)c1`, the logD in data set [1] (read-out: logD) is 3.8. In addition, at Translocator protein, the affinity corresponds to a Ki of 0.46 nM. Further, the Drug uptake in the data set on Rattus norvegicus [2] worked out at 0.53 % ID/g; in the data set with Rattus norvegicus [3] it was 0.23 % ID/g. Also, the Ratio in the data set with Striatum [4] is recorded as 2.56; in the data set with Striatum [5], 5.56. In addition, in the data set with Brain, the Stability stood at 45%.

`COc1ccc(OC)c(CN(C(=O)C[18F])c2ccccc2Oc2ccccc2)c1` had a Drug uptake in the data set on Rattus norvegicus [2] of 0.74 % ID/g. Moreover, the Stability in the data set with Brain was 91%.

For `COc1ccccc1CN(C(=O)CF)c1cccnc1Oc1ccccc1`, the logD in data set [1] (read-out: logD) is 1.51. Affinity at Translocator protein was put at a Ki of 125 nM. The Drug uptake is given as 0.55 % ID/g in the data set on Rattus norvegicus [2] and 0.15 % ID/g with Rattus norvegicus [3]. Further, the Ratio in the data set with Striatum [4] is 1.36; in the data set on Striatum [5] it was 4.82.

Regarding `CC(=O)N(Cc1cccn(CCF)c1=O)c1ccccc1Oc1ccccc1`, in data set [1] (read-out: logD), the logD amounted to 2.2. This compound also came in with a Ki at Translocator protein of 105 nM.

`COc1ccc(OC)c(CN(C(=O)CF)c2ccccc2Sc2ccccc2)c1` had a Ki on Translocator protein of 4.48 nM. The Drug uptake amounted to 0.61 % ID/g in the data set on Rattus norvegicus [2] and 0.17 % ID/g in the data set with Rattus norvegicus [3]. Besides, the figures for the Ratio in the data set on Striatum [4] and with Striatum [5] were 1.88 and 6.22, respectively.

Turning to `O=C(CF)N(Cc1cccs1)c1ccccc1Oc1ccccc1`, the logD in data set [1] (read-out: logD) was 1.98. Further, at Translocator protein, affinity was put at a Ki of 163 nM.

Take `Cc1ccc(CN(C(=O)CF)c2ccccc2Oc2ccccc2)o1`: in data set [1] (read-out: logD), the pH-dependent lipophilicity (logD) is 2.19. In addition, the affinity at Translocator protein corresponds to a Ki of 72.1 nM.

In data set [1], `COc1ccc(OC)c(CN(C(=O)CF)c2ccccc2Oc2ccccc2)c1` gave a logD of 2.36.

In the case of `COc1ccc(OC)c(CN(C(=O)CF)c2ccccc2OC(C)C)c1`, the logD in data set [1] (read-out: logD) was found to be 2.62. On Translocator protein, this compound displayed a Ki of 3.8 nM.

Take `COc1ccccc1CN(C(=O)CF)c1cnccc1Oc1ccccc1`: the affinity at Translocator protein, expressed as Ki, was 2.18 nM. In addition, in data set [6], the logP (in general, the decadic logarithm of the partition coefficient of the neutral form, usually between octanol and water) worked out at 2.72. The Stability with Brain is 52%.

Regarding `COc1ncccc1CN(C(=O)CF)c1ccccc1Oc1ccccc1`, the logD in data set [1] (read-out: logD) came to 2.38. In addition, the Drug uptake with Rattus norvegicus [2] is 0.66 % ID/g; in the data set with Rattus norvegicus [3] it was 0.33 % ID/g. Also, the Ratio in the data set with Striatum [4] is listed as 2.54; in the data set on Striatum [5], 3.92.

Regarding `COc1ccc(OC)c(CN(C(=O)CF)c2cc(F)ccc2OC(C)C)c1`, on Translocator protein, affinity was put at a Ki of 9.84 nM. In other words, the single-digit nanomolar range.

As to `CC(=O)N(Cc1ccccc1OCCF)c1cccnc1Oc1ccccc1`, the logD in data set [1] (read-out: logD) was 1.69. Besides, the Drug uptake with Rattus norvegicus [2] was 0.45 % ID/g; in the data set with Rattus norvegicus [3], 0.4 % ID/g. The Ratio with Striatum [4] amounted to 3.08; in the data set with Striatum [5], 2.85.

Turning to `CCC(C)N([11CH3])C(=O)c1cc2ccccc2c(-c2ccccc2Cl)n1` (centres undefined), in the data set on Rattus norvegicus [2], the Drug uptake was 0.28 % ID/g.

On Translocator protein, `COc1ccc(OC)c(CN(C(=O)CF)c2cncnc2Oc2ccccc2)c1` gave a Ki of 63 nM. The same compound came in with a logP in data set [6] of 2.79.

Take `O=C(CF)N(Cc1cccc2c1OCCO2)c1ccccc1Oc1ccccc1`: the logD in data set [1] (read-out: logD) was 1.96. Besides, the affinity at Translocator protein, expressed as Ki, was 1.14 nM. For the same compound, the figures for the Drug uptake with Rattus norvegicus [2] and with Rattus norvegicus [3] were 0.72 % ID/g and 0.4 % ID/g, respectively. Also, the Ratio with Striatum [4] came to 2.5; in the data set with Striatum [5], 3.88. Moreover, the Stability in the data set on Brain is 82%.

Compound `COc1ccc(OC)c(CN(C(=O)CF)c2cccc3cc(C)oc23)c1` showed a Ki at Translocator protein of 6.38 nM. Also, the Drug uptake in the data set on Rattus norvegicus [2] amounted to 0.68 % ID/g; in the data set with Rattus norvegicus [3] it was 0.35 % ID/g. For the same compound, the results for the Ratio in the data set with Striatum [4] and in the data set with Striatum [5] were 3.5 and 6.3, respectively. Also, in the data set with Brain, the Stability is 80%.

With `COc1ncccc1CN(C(=O)CF)c1cc(F)ccc1Oc1ccccc1`, the log distribution coefficient (logD) in data set [1] (read-out: logD) amounted to 2.3. Further, the Ki on Translocator protein turned out to be 3.52 nM. Besides, the figures for the Drug uptake with Rattus norvegicus [2] and with Rattus norvegicus [3] were 0.84 % ID/g and 0.5 % ID/g, respectively. Moreover, the Ratio in the data set with Striatum [4] is recorded as 2.78; in the data set with Striatum [5] it was 4.39. For the same compound, the Stability in the data set on Brain was found to be 72%.

Turning to `COc1ccc(OC)c(CN(C(C)=O)c2cc(F)ccc2Oc2ccccc2)c1`, the Ki on Translocator protein was found to be 0.43 nM.

`CC1(C)Cc2cccc(CN(C(=O)CF)c3ccccc3Oc3ccccc3)c2O1`: the logD in data set [1] (read-out: logD) was 2.6. Further, at Translocator protein, the affinity corresponds to a Ki of 2.66 nM. The Drug uptake in the data set with Rattus norvegicus [2] worked out at 0.58 % ID/g; in the data set with Rattus norvegicus [3] it was 0.23 % ID/g. Moreover, the values for the Ratio in the data set on Striatum [4] and in the data set on Striatum [5] were 1.53 and 3.8, respectively.

Regarding `COc1ccc(OC)c(CN(C(=O)CF)c2cc(F)ccc2Oc2ccccc2)c1`, in data set [1] (read-out: logD), the logD amounted to 2.06. In addition, the Ki at Translocator protein came out at 0.05 nM. Also, the Drug uptake is 0.73 % ID/g with Rattus norvegicus [2] and 0.7 % ID/g with Rattus norvegicus [3]. In addition, the values for the Ratio with Striatum [4] and in the data set with Striatum [5] were 2.06 and 1.71, respectively.

For the compound `O=C(CF)N(Cc1cccc2c1OCO2)c1ccccc1Oc1ccccc1`, in data set [1] (read-out: logD), the log distribution coefficient (logD) turned out to be 2.8. For the same compound, at Translocator protein, affinity was put at a Ki of 2.03 nM. Moreover, the figures for the Drug uptake in the data set with Rattus norvegicus [2] and in the data set with Rattus norvegicus [3] were 0.65 % ID/g and 0.37 % ID/g, respectively. Further, the figures for the Ratio in the data set with Striatum [4] and with Striatum [5] were 2.85 and 4.77, respectively. The Stability in the data set on Brain was determined as 92%.

With `CCC(C)N(C)C(=O)c1cc2ccccc2c(-c2ccccc2Cl)n1` (centres undefined) [PK-11195], the logD in data set [1] (read-out: logD) was determined as 3.73.

Source of the values: ChEMBL document CHEMBL2069301, “Exploration of the structure-activity relationship of the diaryl anilide class of ligands for translocator protein--potential novel positron emitting tomography imaging agents” (Bioorg Med Chem Lett, 2012).
